Reference: PubChem BioAssay (NCI)
Values joined by “and” are separate entries in the source; they are usually repeats but may differ in a detail not shown here. Equal values may be shown once.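 All cell lines were grown in 96-well plates and treated with compound for 48 hours. At the GI50, growth is halved. TGI is the concentration that stops growth completely.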

Tests used:
Test in all cases: NCI anticancer screen, dose series, 48 h
[1] = tested on: KM12 colon
[2] = tested on: SF-268 CNS
[3] = tested on: COLO 205 colon
[4] = tested on: SW-620 colon
[5] = tested on: HT29 colon
[6] = tested on: MALME-3M melanoma
[7] = tested on: RPMI-8226 leukemia
[8] = tested on: NCI/ADR-RES ovarian
[9] = tested on: LOX IMVI melanoma
[10] = tested on: SK-MEL-2 melanoma

| SMILES | TGI [1] [µM] | TGI [2] | TGI [3] | TGI [4] [µM] | TGI [5] | TGI [6] [µM] | TGI [7] [µM] | TGI [8] [µM] | TGI [9] [µM] | TGI [10] [µM] | GI50 [1] [µM] | GI50 [2] | GI50 [3] | GI50 [4] [µM] | GI50 [5] | GI50 [6] [nM] | GI50 [7] [µM] | GI50 [8] [µM] | GI50 [9] [nM] | GI50 [10] [nM] |
| --- | --- | --- | --- | --- | --- | --- | --- | --- | --- | --- | --- | --- | --- | --- | --- | --- | --- | --- | --- | --- |
| CC1=CC(=O)C(C(O)(C(F)(F)F)C(F)(F)F)C(C)(C)C1 (stereo not given) | > 10 | > 10 µM | > 10 µM | > 10 | > 10 µM | > 10 | > 10 | > 10 | > 10 | > 10 |  |  |  |  |  |  |  |  |  |  |
| O=C(N/N=C/c1ccc([N+](=O)[O-])o1)c1ccc(O)cc1 | > 100 | > 100 µM | 16.1 µM | > 100 | > 100 µM | 2.56 | 48.3 | > 100 | 16.9 | > 100 | 5.43 | 6.73 µM | 4.63 µM | 3.85 | 5.88 µM | 1110 | 3.35 | 5.54 | 2150 | 11300 |
| O=c1oc2ccc(Br)cc2c(=O)n1-c1ccc(F)cc1F | 8.49 | 21.8 µM | 16.4 µM | 16.7 | 27.8 µM | 5.87 | 7.07 | 30.5 | 12.4 | 6.13 | 2.75 | 2.62 µM | 3.92 µM | 2.96 | 3.45 µM | 1590 | 1.66 | 2.9 | 2790 | 2120 |
| Cc1ccc(Nc2nnc(-c3ccc4c(c3)OCO4)o2)c(C)c1 | > 100 | > 100 µM | > 100 µM | > 100 | > 100 µM | > 100 | > 100 | > 100 | > 100 | > 100 |  |  |  |  |  |  |  |  |  |  |
| Cc1cc(C)n(-c2nnc3n2N=C(c2ccc(-c4ccccc4)cc2)CS3)n1 | > 100 | > 100 µM | 4.77 µM | > 100 | 12.1 µM | 17 | > 100 | > 100 | > 100 | 7.17 | 3.49 | 3.96 µM | 2.23 µM | 3.41 | 3.11 µM | 3440 | 3.18 | 3.09 | 3360 | 2580 |
| COc1ccc(Cc2cnc(NC(=O)c3ccc4c(c3)OCCO4)s2)cc1 | 11.1 | > 100 µM | 0.319 µM | > 100 | > 55.4 µM | > 61.6 | > 100 | > 100 | > 100 | > 78.4 | 0.0264 | 0.211 µM | 0.0289 µM | 0.0338 | 0.0418 µM | 1520 | 0.0499 | 0.024 | 45.6 | 54.5 |
| CCOC(CN(C)C(=S)Nc1cccc2ccccc12)OCC | > 10 | > 10 µM | > 10 µM | > 10 | > 10 µM | > 10 | > 10 | > 10 | > 10 | > 10 |  |  |  |  |  |  |  |  |  |  |
| COC(=O)c1cc(/C=C/c2ccc(S(N)(=O)=O)cc2)ccc1O | > 100 | > 100 µM | > 100 µM | > 100 | > 100 µM | > 100 | > 100 | > 100 | > 100 | > 100 | 24 | 37.3 µM | 29.8 µM | 25.7 | 64.5 µM | 34500 | 27.4 | 59.2 | 30000 | 66800 |
| CC1C(=O)OC2CC[N+]3([O-])CC=C(COC(=O)C(C)(O)C1(C)O)C23 (stereo not given) | > 100 | > 100 µM | > 100 µM | > 100 | > 100 µM | > 100 | > 100 | > 100 | > 100 | > 100 |  |  |  |  |  |  |  |  |  |  |
| O/C(=C\c1nc2ccccc2nc1NC12CC3CC(CC(C3)C1)C2)c1ccc(Br)cc1 | > 10 | > 10 µM | > 10 µM | > 10 | > 10 µM | > 10 | > 10 | > 10 | > 10 | > 10 |  |  |  |  |  |  |  |  |  |  |
| O=C(Nc1ccc(Cl)c(Cl)c1)Nc1ccccc1O | 13.7 | 27.4 µM | 18.6 µM | 19.5 | 36.1 µM | 20.3 | 32.3 | 28.5 | 24.2 | 17 | 3.35 | 9.59 µM | 5.38 µM | 5.42 | 18.5 µM | 4820 | 3.37 | 3.59 | 4580 | 5510 |
| CCCCCCCCCCCCOC1C(C(CC(=O)NCCN2CCCC2)NS(=O)(=O)c2cc(Cl)cc(Cl)c2)OC2OC(C)(C)OC21 (stereo not given) | 3.45 | 3.96 µM and 3.84 µM | 4.4 µM and 2.66 µM | 3.63 | 3.45 µM and 2.85 µM | 3.62 | 3.21 | 4.08 | 3.5 | 4.95 | 1.81 | 1.95 µM and 1.97 µM | 2.06 µM and 1.19 µM | 1.98 | 1.76 µM and 1.31 µM | 1890 | 1.23 | 2.04 | 1900 | 2630 |
| Cc1cc2c(nn1)-c1ccccc1C2=O | > 10 | > 10 µM | > 10 µM | > 10 | > 10 µM | > 10 | > 10 | > 10 | > 10 | > 10 |  |  |  |  |  |  |  |  |  |  |
| CC(O)CC(O)(C(F)(F)F)C(F)(F)F (stereo not given) | > 10 | > 10 µM | > 10 µM | > 10 | > 10 µM | > 10 | > 10 | > 10 | > 10 | > 10 |  |  |  |  |  |  |  |  |  |  |
| CCN(CC)CCNc1ccc2ncn3c4cc(OC)c(OC)c(=O)c4c(O)c1c23 | 23.2 | 17.6 µM | 17.4 µM | 16.5 | 19.8 µM | 36.8 | 20.2 | 41.8 | 2.74 | 42.7 |  |  |  |  |  |  |  |  |  |  |
